We go through 41 compounds from patent publication US10023575B2, “Cyclic ether derivatives of pyrazolo[1,5-a]pyrimidine-3-carboxyamide” (Boehringer Ingelheim International GmbH, priority 2015, dated 2018).

One test addresses PDE10 (Homo sapiens (Human), UniProt Q9Y233). The experiment in a line: Phosphodiesterase (PDE) 10 assay with fluorescent substrate (IMAP, fluorescence polarization). It is filed as biochemical. Particulars: labeled cAMP 30 nM. Here is the method:
(§1) The PDE reaction cleaves cAMP to AMP. The IMAP system (Molecular Device) using fluorescence polarization (FP) as detection principle was used to measure enzyme activity. A fluorescent labeled cAMP was used as substrate for the reaction, generating a labeled AMP. The fluorescent AMP binds specifically to the large M(III)-based nano-particles which reduces the rotational speed of the substrate and thus increases its polarization.
(§2) The inhibition of PDE 2A or 10 enzyme activity was assessed using IMAP-Phosphodiesterase-cAMP fluorescence labeled substrate (Molecular Devices, Order No. R7506), IMAP TR-FRET screening express (Molecular Devices, Order No. R8160, the TR-FRET component will not be used) and PDE 2A or PDE10 protein expressed upon baculovirus infection in SF9 cells. The cells were incubated after infection for ˜3 days and protein production was confirmed by Western Blot. The cells were collected by centrifugation and the pellet frozen in liquid nitrogen before it was resuspended in PBS containing 1% Triton X-100 and protease inhibitors. After 45 min incubation on ice, the cell debris was removed by centrifugation (13.000 rpm, 30 min).
(§3) All reactions were performed in 384 well plates, Perkin Elmer black optiplates and IMAP reaction buffer with 0.1% Tween20 (kit component)
(§4) Compounds were serial diluted in DMSO. With an intermediate dilution step with reaction buffer DMSO concentration was reduced to achieve 1% DMSO in the assay reaction. Setup of the assay started with 10 μl enzyme (˜10 ng/well, depending on prep. batch), 5 μl compound, reaction was started by addition of 5 μl labeled cAMP (30 nM, final concentration), immediately mixed for 15 seconds on a Eppendorf mixmate (2000 rpm) followed by an incubation at room temperature for 90 minutes in the dark. Reaction is stopped by adding of 60 μl binding buffer for FP/cAMP (kit component).
(§5) Each assay plate contained wells with vehicle controls (1% DMSO) for the measurement of non-inhibited reaction (=100% control) and wells without enzyme as 0% controls.
For orientation: Polarisation of emitted light reports the rotation of a fluorescent probe.

Another test addresses PDE 2A (Homo sapiens (Human), UniProt O00408). The experiment in a line: Phosphodiesterase (PDE) 2A assay with fluorescent substrate (IMAP, fluorescence polarization). Type of test: biochemical. Conditions: labeled cAMP 30 nM, read-out: PDE2 IC50. Here is the method:
as §1, §2, §3, §4, §5

Each structure is given as a SMILES string.

Chain of PDE 2A (O00408 whole entry, species assumed): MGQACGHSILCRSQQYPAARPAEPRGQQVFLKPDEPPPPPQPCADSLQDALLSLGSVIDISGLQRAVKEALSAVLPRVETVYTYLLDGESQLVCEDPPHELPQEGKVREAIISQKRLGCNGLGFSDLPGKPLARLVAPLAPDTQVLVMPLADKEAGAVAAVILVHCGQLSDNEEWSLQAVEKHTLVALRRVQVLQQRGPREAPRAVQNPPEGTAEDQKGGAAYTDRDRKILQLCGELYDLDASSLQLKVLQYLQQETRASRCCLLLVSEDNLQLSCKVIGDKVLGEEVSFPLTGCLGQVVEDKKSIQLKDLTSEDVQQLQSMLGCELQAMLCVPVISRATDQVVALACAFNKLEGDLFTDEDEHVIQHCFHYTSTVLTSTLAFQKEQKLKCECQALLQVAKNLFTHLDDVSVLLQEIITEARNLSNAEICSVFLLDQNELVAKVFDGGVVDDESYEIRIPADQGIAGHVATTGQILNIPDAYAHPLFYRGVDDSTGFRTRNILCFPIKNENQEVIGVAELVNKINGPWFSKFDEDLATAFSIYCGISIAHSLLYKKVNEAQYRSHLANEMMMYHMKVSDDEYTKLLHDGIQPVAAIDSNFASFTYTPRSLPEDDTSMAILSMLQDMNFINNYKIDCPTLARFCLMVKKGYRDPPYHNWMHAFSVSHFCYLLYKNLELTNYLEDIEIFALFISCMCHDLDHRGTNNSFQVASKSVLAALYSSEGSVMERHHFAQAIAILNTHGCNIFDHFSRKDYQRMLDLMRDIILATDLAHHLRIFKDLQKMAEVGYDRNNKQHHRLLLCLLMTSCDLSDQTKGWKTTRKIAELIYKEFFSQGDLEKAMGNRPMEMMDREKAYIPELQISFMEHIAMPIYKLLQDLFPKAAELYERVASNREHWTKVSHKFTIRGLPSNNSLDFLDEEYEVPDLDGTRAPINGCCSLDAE
Chain of PDE10 (Q9Y233 whole entry): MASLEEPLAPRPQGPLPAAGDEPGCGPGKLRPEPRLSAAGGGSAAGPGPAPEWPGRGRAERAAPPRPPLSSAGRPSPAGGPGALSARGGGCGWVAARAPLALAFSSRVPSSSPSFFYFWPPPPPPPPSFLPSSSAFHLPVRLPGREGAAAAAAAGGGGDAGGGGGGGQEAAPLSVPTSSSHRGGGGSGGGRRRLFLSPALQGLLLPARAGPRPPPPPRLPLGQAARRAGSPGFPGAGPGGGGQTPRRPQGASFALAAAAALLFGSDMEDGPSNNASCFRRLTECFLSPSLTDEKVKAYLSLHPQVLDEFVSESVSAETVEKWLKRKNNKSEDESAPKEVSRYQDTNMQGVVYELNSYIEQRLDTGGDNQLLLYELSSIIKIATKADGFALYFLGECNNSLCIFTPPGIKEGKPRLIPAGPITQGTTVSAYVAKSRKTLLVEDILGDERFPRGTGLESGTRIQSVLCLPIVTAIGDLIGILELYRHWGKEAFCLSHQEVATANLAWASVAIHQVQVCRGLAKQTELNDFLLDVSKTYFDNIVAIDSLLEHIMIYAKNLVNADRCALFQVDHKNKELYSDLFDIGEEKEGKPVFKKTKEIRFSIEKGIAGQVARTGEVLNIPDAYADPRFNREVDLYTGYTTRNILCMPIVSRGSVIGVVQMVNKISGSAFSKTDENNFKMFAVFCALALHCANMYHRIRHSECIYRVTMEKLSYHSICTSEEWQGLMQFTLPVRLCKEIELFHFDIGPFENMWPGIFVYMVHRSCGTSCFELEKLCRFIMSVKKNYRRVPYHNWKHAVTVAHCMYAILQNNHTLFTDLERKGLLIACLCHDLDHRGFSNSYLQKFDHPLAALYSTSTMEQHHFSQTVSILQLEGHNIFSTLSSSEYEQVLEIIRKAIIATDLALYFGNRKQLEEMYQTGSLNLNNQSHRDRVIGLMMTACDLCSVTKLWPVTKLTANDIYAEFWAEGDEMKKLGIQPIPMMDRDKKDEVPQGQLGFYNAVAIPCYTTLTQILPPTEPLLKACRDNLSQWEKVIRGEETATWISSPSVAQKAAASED

The IC50 is the point on the concentration scale where inhibition reaches its midpoint. `Cc1cnc2c(C(=O)NC3(c4ccc(C(F)(F)F)cc4F)COCC3O)cnn2c1` (single isomer, unassigned) [Example 75]: on PDE10, the IC50 was over 10 µM.

In the case of `Cc1cnc2c(C(=O)NC3(c4ncc(C(F)(F)F)cc4F)CCOCC3O)cnn2c1` (racemic) [Example 56], the IC50 is 229 nM on PDE 2A and over 10 µM at PDE10. In the same order, the values of `Cc1cnc2c(C(=O)NC3(c4ccc(C(F)(F)F)nc4)CCOCC3)c(C)nn2c1` [Example 26] are 174 nM and over 10 µM. In the same order, the values of `O=C(NC1(c2ccc(Cl)cc2F)CCOC1)c1cnn2cc(C3CC3)cnc12` (racemic) [Example 38] are 331 nM and 6.71 µM. Compound `Cc1cnc2c(C(=O)NC3(c4ccc(C(F)(F)F)cc4F)COCC3O)cnn2c1` (single isomer, unassigned) [Example 74] returned a 50% inhibitory concentration (IC50) against PDE10 of over 10 µM.

Consider `Cc1cnc2c(C(=O)NC3(c4ccc(C(F)(F)F)cc4F)COCC3(C)O)cnn2c1` (single isomer, unassigned) [Example 92a], for which, on PDE10, the half-inhibitory concentration (IC50) is over 10 µM. Consider `Cc1nn2cc(C3CC3)cnc2c1C(=O)NC1(c2ncc(C(F)(F)F)cc2F)CCOCC1O` (racemic) [Example 61], for which the values for the IC50 at PDE 2A and on PDE10 were 19 nM and 6.65 µM, respectively.

For the compound `Cc1cnc2c(C(=O)NC3(c4ccc(C(F)(F)F)cc4F)CCOCC3O)cnn2c1` (racemic) [Example 47], the IC50 against PDE10 is over 10 µM. Regarding `O=C(NC1(c2ccc(C(F)(F)F)cc2)CCCOC1)c1cnn2cc(C3CC3)cnc12` (racemic) [Example 32], the half-inhibitory concentration (IC50) is 67 nM on PDE 2A and over 10 µM against PDE10.

Consider `Cc1cnc2c(C(=O)NC3(c4ccc5ccccc5n4)CCOCC3)cnn2c1` [Example 12], for which the half-maximal inhibitory concentration (IC50) was 1650 nM on PDE 2A and over 10 µM at PDE10. As to `O=C(NC1(c2ncc(C(F)(F)F)cc2F)CCOCC1O)c1cnn2cc(C3CC3)cnc12` (racemic) [Example 57], the results for the half-maximal inhibitory concentration (IC50) at PDE 2A and against PDE10 were 103 nM and over 10 µM, respectively.

Turning to `Cc1cnc2c(C(=O)NC3(c4ccc(C(F)(F)F)cc4F)CCOCC3=O)cnn2c1` (centres unmarked) [Example 67], the IC50 was 50 nM on PDE 2A and over 10 µM against PDE10. As to `Cc1cnc2c(C(=O)NC3(c4ccc(C(F)(F)F)nc4)CCOCC3O)cnn2c1` (racemic) [Example 50], the results for the 50% inhibitory concentration (IC50) at PDE 2A and at PDE10 were 596 nM and over 10 µM, respectively. Turning to `Cc1cnc2c(C(=O)NC3(c4ccc(C(F)(F)F)cc4F)COCC3(C)O)cnn2c1` (centres unmarked) [Example 58], the IC50 against PDE10 is over 10 µM.

On to `O=C(NC1(c2ccc(C(F)(F)F)nc2)CCOCC1O)c1cnn2cc(C3CC3)cnc12` (racemic) [Example 52], for which the IC50 at PDE 2A was 231 nM; on PDE10, over 10 µM.

In the case of `Cc1cnc2c(C(=O)NC3(c4ccc(C(F)(F)F)cc4F)COCC3(C)O)cnn2c1` (single isomer, unassigned) [Example 93b], the half-maximal inhibitory concentration (IC50) against PDE10 is over 10 µM. Turning to `Cc1cnc2c(C(=O)NC3(c4ncc(C(F)(F)F)cc4F)CCOCC3)cnn2c1` [Example 19], the IC50 is 519 nM on PDE 2A and over 10 µM on PDE10. Take `O=C(NC1(c2ccc(OC(F)(F)F)cc2)CCCOC1)c1cnn2cc(C3CC3)cnc12` (racemic) [Example 33]: the IC50 at PDE 2A is 83 nM; against PDE10 it was over 10 µM.

On to `Cc1cnc2c(C(=O)NC3(c4ccc(C(F)(F)F)cn4)CCOCC3O)cnn2c1` (racemic) [Example 64], for which the IC50 at PDE 2A is 496 nM; at PDE10, over 10 µM. Take `Cc1nn2cc(C3CC3)cnc2c1C(=O)NC1(c2ncc(C(F)(F)F)cc2F)CCOCC1(C)O` (racemic) [Example 62]: the 50% inhibitory concentration (IC50) at PDE 2A came to 127 nM.

As to `Cc1cnc2c(C(=O)NC3(c4ccc(C(F)(F)F)cn4)CCOC3)c(C)nn2c1` (racemic) [Example 44], the IC50 on PDE 2A was found to be 840 nM. With `Cc1nn2cc(C3CC3)cnc2c1C(=O)NC1(c2cnc(C(F)(F)F)c(F)c2)CCOCC1` [Example 29], the IC50 on PDE 2A came to 661 nM; at PDE10, 5.93 µM. Regarding `Cc1cnc2c(C(=O)NC3(c4ccc(Cl)cc4F)CCOCC3)cnn2c1` [Example 5], the IC50 on PDE 2A is 258 nM; against PDE10 it was 12.2 µM. As for `Cc1cnc2c(C(=O)NC3(c4ccc(C(F)(F)F)nc4)CCOCC3)cnn2c1` [Example 28], the half-inhibitory concentration (IC50) on PDE 2A is 834 nM; on PDE10, over 10 µM. On to `Cc1nn2cc(C3CC3)cnc2c1C(=O)NC1(c2ccc(C(F)(F)F)nc2)CCOC1` (racemic) [Example 42], for which the half-maximal inhibitory concentration (IC50) stood at 130 nM at PDE 2A and 5.59 µM on PDE10. Take `O=C(NC1(c2ccc(Cl)cc2F)CCOCC1)c1cnn2cc(C3CC3)cnc12` [Example 7]: the IC50 on PDE 2A came out at 77 nM; against PDE10, 9.11 µM. In the same order, the values of `O=C(NC1(c2ccc(F)cc2Cl)CCOCC1)c1cnn2cc(C3CC3)cnc12` [Example 6] are 199 nM and over 10 µM. In the same order, the values of `Cc1cnc2c(C(=O)NC3(c4ccc(Cl)cc4F)CCOCC3)c(C)nn2c1` [Example 4] are 48 nM and 0.55 µM. In the same order, the values of `Cc1cnc2c(C(=O)NC3(c4ccc(OC(F)F)c(F)c4)CCOCC3)cnn2c1` [Example 15] are 746 nM and over 10 µM. With `O=C(NC1(c2ccc(C(F)(F)F)nc2)CCOCC1)c1cnn2cc(C3CC3)cnc12` [Example 27], the 50% inhibitory concentration (IC50) on PDE 2A was 534 nM; on PDE10 it was over 10 µM. In the same order, the values of `O=C(NC1(c2ccc(C(F)(F)F)cc2F)CCOC1)c1cnn2cc(C3CC3)cnc12` (racemic) [Example 34] are 27 nM and 10.8 µM.

On to `Cc1nn2cc(C3CC3)cnc2c1C(=O)NC1(c2ncc(C(F)(F)F)cc2F)CCOCC1O` (single isomer, unassigned) [Example 90a], for which the IC50 was determined as 200 nM at PDE 2A and 8.59 µM at PDE10.

For the compound `Cc1cnc2c(C(=O)NC3(c4ccc(C(F)(F)F)cc4F)COCC3O)cnn2c1` (single isomer, unassigned) [Example 73], the IC50 at PDE10 was over 10 µM. `Cc1cnc2c(C(=O)NC3(c4ccc(C(F)(F)F)cc4)CCOCC3O)cnn2c1` (racemic) [Example 59]: the half-maximal inhibitory concentration (IC50) was 60 nM on PDE 2A and over 10 µM on PDE10. In the same order, the values of `Cc1cnc2c(C(=O)NC3(c4ccc(C(F)(F)F)cn4)CCOCC3)cnn2c1` [Example 24] are 754 nM and over 10 µM.

On to `O=C(NC1(c2ccc(C(F)(F)F)cn2)CCOCC1)c1cnn2cc(C3CC3)cnc12` [Example 23], for which the results for the IC50 at PDE 2A and against PDE10 were 232 nM and over 10 µM, respectively.

In the case of `Cc1cnc2c(C(=O)NC3(c4ccc(C(F)(F)F)nc4)CCOCC3O)cnn2c1` (single isomer, unassigned) [Example 87b], the IC50 at PDE 2A turned out to be 184 nM.

Regarding `Cc1cnc2c(C(=O)NC3(c4ccc(C(F)(F)F)cc4F)COCC3O)cnn2c1` (single isomer, unassigned) [Example 72], at PDE10, the half-maximal inhibitory concentration (IC50) is over 10 µM. Same read-out and setting: with `Cc1cnc2c(C(=O)NC3(c4ccc(C(F)(F)F)cc4)CCOC3)cnn2c1` (racemic) [Example 36] the figure was over 10 µM; with `Cc1cnc2c(C(=O)NC3(c4ccc(C(F)(F)F)cc4F)COCC3(C)O)cnn2c1` (single isomer, unassigned) [Example 92b], over 10 µM. As for `Cc1cnc2c(C(=O)NC3(c4ccc(C(F)(F)F)cc4F)COCC3(C)O)cnn2c1` (single isomer, unassigned) [Example 93a], on PDE10, the IC50 was over 10 µM.
